Source: PubChem BioAssay AID2060613 (Molecular Pharmacology Branch, DTP, NCI, 2025)

Tested on: 233499-124-R-J3-PDC complex spheroid viability
Test: Anticancer human tumor 233499-124-R-J3-PDC patient-derived colon adenocarcinoma cell line growth inhibition [CLK]
Conditions: for viability, T/C: stronger effect = lower value
Method in brief: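 Multi-cell-type spheroids combined patient-derived tumor cells with HUVEC endothelial cells and human mesenchymal stem cells. Paired agents were dosed in half-log steps down from about clinical Cmax, or from 10 microM where Cmax was unknown.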

[1] = curve of first compound, second compound 0.0316 µM
[2] = curve of first compound, second compound 0.1 µM
[3] = curve of first compound, second compound 0.316 µM
[4] = curve of first compound, second compound 1 µM
[5] = curve of first compound, second compound 3.16 µM
[6] = curve of first compound, second compound 10 µM
[7] = second compound 0.0316 µM, first compound 0.0316 µM
[8] = second compound 0.0316 µM, first compound 0.1 µM
[9] = second compound 0.0316 µM, first compound 0.316 µM
[10] = second compound 0.0316 µM, first compound 1 µM
[11] = second compound 0.0316 µM, first compound 3.16 µM
[12] = second compound 0.0316 µM, first compound 10 µM
[13] = second compound 0.1 µM, first compound 0.0316 µM
[14] = second compound 0.1 µM, first compound 0.1 µM
[15] = second compound 0.1 µM, first compound 0.316 µM
[16] = second compound 0.1 µM, first compound 1 µM
[17] = second compound 0.1 µM, first compound 3.16 µM
[18] = second compound 0.1 µM, first compound 10 µM
[19] = second compound 0.316 µM, first compound 0.0316 µM
[20] = second compound 0.316 µM, first compound 0.1 µM
[21] = second compound 0.316 µM, first compound 0.316 µM
[22] = second compound 0.316 µM, first compound 1 µM
[23] = second compound 0.316 µM, first compound 3.16 µM
[24] = second compound 0.316 µM, first compound 10 µM
[25] = second compound 1 µM, first compound 0.0316 µM
[26] = second compound 1 µM, first compound 0.1 µM
[27] = second compound 1 µM, first compound 0.316 µM
[28] = second compound 1 µM, first compound 1 µM
[29] = second compound 1 µM, first compound 3.16 µM
[30] = second compound 1 µM, first compound 10 µM
[31] = second compound 3.16 µM, first compound 0.0316 µM
[32] = second compound 3.16 µM, first compound 0.1 µM
[33] = second compound 3.16 µM, first compound 0.316 µM
[34] = second compound 3.16 µM, first compound 1 µM
[35] = second compound 3.16 µM, first compound 3.16 µM
[36] = second compound 3.16 µM, first compound 10 µM
[37] = second compound 10 µM, first compound 0.0316 µM
[38] = second compound 10 µM, first compound 0.1 µM
[39] = second compound 10 µM, first compound 0.316 µM
[40] = second compound 10 µM, first compound 1 µM
[41] = second compound 10 µM, first compound 3.16 µM
[42] = second compound 10 µM, first compound 10 µM
[43] = second compound 0.0316 µM, first compound 0.00949 µM
[44] = second compound 0.0316 µM, first compound 0.03 µM
[45] = second compound 0.0316 µM, first compound 0.0949 µM
[46] = second compound 0.0316 µM, first compound 0.3 µM
[47] = second compound 0.1 µM, first compound 0.00949 µM
[48] = second compound 0.1 µM, first compound 0.03 µM
[49] = second compound 0.1 µM, first compound 0.0949 µM
[50] = second compound 0.1 µM, first compound 0.3 µM
[51] = second compound 0.316 µM, first compound 0.00949 µM
[52] = second compound 0.316 µM, first compound 0.03 µM
[53] = second compound 0.316 µM, first compound 0.0949 µM
[54] = second compound 0.316 µM, first compound 0.3 µM
[55] = second compound 1 µM, first compound 0.00949 µM
[56] = second compound 1 µM, first compound 0.03 µM
[57] = second compound 1 µM, first compound 0.0949 µM
[58] = second compound 1 µM, first compound 0.3 µM
[59] = second compound 3.16 µM, first compound 0.00949 µM
[60] = second compound 3.16 µM, first compound 0.03 µM
[61] = second compound 3.16 µM, first compound 0.0949 µM
[62] = second compound 3.16 µM, first compound 0.3 µM
[63] = second compound 10 µM, first compound 0.00949 µM
[64] = second compound 10 µM, first compound 0.03 µM
[65] = second compound 10 µM, first compound 0.0949 µM
[66] = second compound 10 µM, first compound 0.3 µM
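Further: spheroids exposed to the drug combinations for seven days.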
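Wherever viability, T/C is given: percent viability relative to DMSO vehicle control wells taken as 100%.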

## C=CC(=O)N1CCN(c2nc(=O)n(-c3c(C)ccnc3C(C)C)c3nc(-c4c(O)cccc4F)c(F)cc23)C(C)C1 (configuration not stated) + CN1CCN(c2cc(C(=O)Nc3cc4cc(-c5cnn(C)c5)ccc4cn3)ccn2)CC1
[1]
  IC50: > 10000 nM
[2]
  IC50: > 10000 nM
[3]
  IC50: > 10000 nM
[4]
  IC50: < 31.6 nM
[5]
  IC50: < 31.6 nM
[6]
  IC50: < 31.6 nM
[7]
  viability, T/C: 91%
[8]
  viability, T/C: 105%
[9]
  viability, T/C: 103%
[10]
  viability, T/C: 102%
[11]
  viability, T/C: 102%
[12]
  viability, T/C: 101%
[13]
  viability, T/C: 99.8%
[14]
  viability, T/C: 102%
[15]
  viability, T/C: 106%
[16]
  viability, T/C: 99.9%
[17]
  viability, T/C: 101%
[18]
  viability, T/C: 108%
[19]
  viability, T/C: 89.6%
[20]
  viability, T/C: 103%
[21]
  viability, T/C: 96%
[22]
  viability, T/C: 88.5%
[23]
  viability, T/C: 92.4%
[24]
  viability, T/C: 82.6%
[25]
  viability, T/C: 3.8%
[26]
  viability, T/C: 11.4%
[27]
  viability, T/C: 1.76%
[28]
  viability, T/C: 2.52%
[29]
  viability, T/C: 1.73%
[30]
  viability, T/C: 0.3%
[31]
  viability, T/C: 0.65%
[32]
  viability, T/C: 0.61%
[33]
  viability, T/C: 0.73%
[34]
  viability, T/C: 0.79%
[35]
  viability, T/C: 1.69%
[36]
  viability, T/C: 1.55%
[37]
  viability, T/C: 0.41%
[38]
  viability, T/C: 0.38%
[39]
  viability, T/C: 0.45%
[40]
  viability, T/C: 0.53%
[41]
  viability, T/C: 0.5%
[42]
  viability, T/C: 1.01%

## C=C(F)C(=O)N1CCN(c2nc(OCC3CCCN3C)nc3c2CCN(c2cccc4cccc(Cl)c24)C3)CC1CC#N (configuration not stated) + CNC(=O)c1ccc(Nc2nc(OC3CCCC3)c3c(-c4ccc5nc(C)oc5c4)c[nH]c3n2)c(OC)c1
[1]
  IC50: 8760 nM
[2]
  IC50: 4720 nM
[3]
  IC50: 5570 nM
[4]
  IC50: 5660 nM
[5]
  IC50: 5530 nM
[6]
  IC50: 5200 nM
[7]
  viability, T/C: 92.1%
[8]
  viability, T/C: 84.5%
[9]
  viability, T/C: 99%
[10]
  viability, T/C: 89.6%
[11]
  viability, T/C: 93.5%
[12]
  viability, T/C: 44.5%
[13]
  viability, T/C: 65.9%
[14]
  viability, T/C: 73.2%
[15]
  viability, T/C: 81.3%
[16]
  viability, T/C: 70.2%
[17]
  viability, T/C: 61.4%
[18]
  viability, T/C: 28%
[19]
  viability, T/C: 76.7%
[20]
  viability, T/C: 64.9%
[21]
  viability, T/C: 69.7%
[22]
  viability, T/C: 72.8%
[23]
  viability, T/C: 79.2%
[24]
  viability, T/C: 26.7%
[25]
  viability, T/C: 71.4%
[26]
  viability, T/C: 82.5%
[27]
  viability, T/C: 78.4%
[28]
  viability, T/C: 64%
[29]
  viability, T/C: 71.2%
[30]
  viability, T/C: 30%
[31]
  viability, T/C: 76.8%
[32]
  viability, T/C: 77.3%
[33]
  viability, T/C: 75.8%
[34]
  viability, T/C: 73.1%
[35]
  viability, T/C: 75.7%
[36]
  viability, T/C: 22.9%
[37]
  viability, T/C: 75.5%
[38]
  viability, T/C: 66.3%
[39]
  viability, T/C: 73.8%
[40]
  viability, T/C: 66.5%
[41]
  viability, T/C: 74.3%
[42]
  viability, T/C: 22%

## CN1CCN(c2cc(C(=O)Nc3cc4cc(-c5cnn(C)c5)ccc4cn3)ccn2)CC1
Compound 1 µM
  viability, T/C: 1.16% [middle of 11 runs]
Compound 3.16 µM
  viability, T/C: 0.72% [middle of 10 runs]
Compound 10 µM
  viability, T/C: 0.46% [middle of 10 runs]
Compound alone, run of 07/31/2023
  IC50: 529 nM [middle of 10 runs]

## CC(C)CC(NC(=O)C(Cc1ccccc1)NC(=O)c1cnccn1)B(O)O (configuration not stated) + CN1CCN(c2cc(C(=O)Nc3cc4cc(-c5cnn(C)c5)ccc4cn3)ccn2)CC1
[1]
  IC50: 5.53 nM
[2]
  IC50: 5.01 nM
[3]
  IC50: 5.27 nM
[4]
  IC50: < 0.949 nM
[5]
  IC50: < 0.949 nM
[6]
  IC50: < 0.949 nM
Second compound 0.0316 µM, first compound 0.000949 µM
  viability, T/C: 97.8%
Second compound 0.0316 µM, first compound 0.003 µM
  viability, T/C: 113%
[43]
  viability, T/C: 0.79%
[44]
  viability, T/C: 0.19%
[45]
  viability, T/C: 0.17%
[46]
  viability, T/C: 0.17%
Second compound 0.1 µM, first compound 0.000949 µM
  viability, T/C: 86.1%
Second compound 0.1 µM, first compound 0.003 µM
  viability, T/C: 93.5%
[47]
  viability, T/C: 0.23%
[48]
  viability, T/C: 0.2%
[49]
  viability, T/C: 0.18%
[50]
  viability, T/C: 0.17%
Second compound 0.316 µM, first compound 0.000949 µM
  viability, T/C: 96.5%
Second compound 0.316 µM, first compound 0.003 µM
  viability, T/C: 99%
[51]
  viability, T/C: 0.2%
[52]
  viability, T/C: 0.17%
[53]
  viability, T/C: 0.18%
[54]
  viability, T/C: 0.17%
Second compound 1 µM, first compound 0.000949 µM
  viability, T/C: 1.6%
Second compound 1 µM, first compound 0.003 µM
  viability, T/C: 0.82%
[55]
  viability, T/C: 0.17%
[56]
  viability, T/C: 0.15%
[57]
  viability, T/C: 0.54%
[58]
  viability, T/C: 0.13%
Second compound 3.16 µM, first compound 0.000949 µM
  viability, T/C: 0.76%
Second compound 3.16 µM, first compound 0.003 µM
  viability, T/C: 0.84%
[59]
  viability, T/C: 0.17%
[60]
  viability, T/C: 0.18%
[61]
  viability, T/C: 0.19%
[62]
  viability, T/C: 0.33%
Second compound 10 µM, first compound 0.000949 µM
  viability, T/C: 0.45%
Second compound 10 µM, first compound 0.003 µM
  viability, T/C: 0.34%
[63]
  viability, T/C: 0.24%
[64]
  viability, T/C: 0.24%
[65]
  viability, T/C: 0.22%
[66]
  viability, T/C: 0.19%

## NC(=O)C(=Cn1cnc(-c2cc(C(F)(F)F)cc(C(F)(F)F)c2)n1)c1cncnc1 + CN1CCN(c2cc(C(=O)Nc3cc4cc(-c5cnn(C)c5)ccc4cn3)ccn2)CC1
[1]
  IC50: 181 nM
[2]
  IC50: 76.8 nM
[3]
  IC50: < 9.49 nM
[4]
  IC50: < 9.49 nM
[5]
  IC50: < 9.49 nM
[6]
  IC50: < 9.49 nM
[43]
  viability, T/C: 72.5%
[44]
  viability, T/C: 85.6%
[45]
  viability, T/C: 67.3%
[46]
  viability, T/C: 35.2%
Second compound 0.0316 µM, first compound 0.949 µM
  viability, T/C: 10.4%
Second compound 0.0316 µM, first compound 3 µM
  viability, T/C: 2.15%
[47]
  viability, T/C: 102%
[48]
  viability, T/C: 96.2%
[49]
  viability, T/C: 39.2%
[50]
  viability, T/C: 7.63%
Second compound 0.1 µM, first compound 0.949 µM
  viability, T/C: 0.53%
Second compound 0.1 µM, first compound 3 µM
  viability, T/C: 0.43%
[51]
  viability, T/C: 22.2%
[52]
  viability, T/C: 13.2%
[53]
  viability, T/C: 0.29%
[54]
  viability, T/C: 0.23%
Second compound 0.316 µM, first compound 0.949 µM
  viability, T/C: 0.39%
Second compound 0.316 µM, first compound 3 µM
  viability, T/C: 1.07%
[55]
  viability, T/C: 0.3%
[56]
  viability, T/C: 0.31%
[57]
  viability, T/C: 0.31%
[58]
  viability, T/C: 0.25%
Second compound 1 µM, first compound 0.949 µM
  viability, T/C: 0.48%
Second compound 1 µM, first compound 3 µM
  viability, T/C: 0.23%
[59]
  viability, T/C: 0.3%
[60]
  viability, T/C: 0.26%
[61]
  viability, T/C: 0.25%
[62]
  viability, T/C: 0.25%
Second compound 3.16 µM, first compound 0.949 µM
  viability, T/C: 0.21%
Second compound 3.16 µM, first compound 3 µM
  viability, T/C: 0.19%
[63]
  viability, T/C: 0.13%
[64]
  viability, T/C: 0.12%
[65]
  viability, T/C: 0.19%
[66]
  viability, T/C: 0.17%
Second compound 10 µM, first compound 0.949 µM
  viability, T/C: 0.19%
Second compound 10 µM, first compound 3 µM
  viability, T/C: 0.21%
